Literature values as cited in US20060182816A1, “Hypobromous acid system” (priority 2005, published 2006).
Like-named read-outs stand apart in the source and are kept apart here.

What was measured:
[1] = not given; remark: listed apart in the source

OCl [HOCl, hypochlorous acid]
pKa: about 7.53

OBr [Hypobromite ion]
% bromine as OBr− ([1]; pH 6.0): 0.0% | % bromine as OBr− ([1]; pH 6.5): 0.6% | % bromine as OBr− ([1]; pH 7.0): 2% | % bromine as OBr− ([1]; pH 7.5): 6% | % bromine as OBr− ([1]; pH 8.0): 17% | % bromine as OBr− ([1]; pH 8.5): 43%

OBr [Hypobromous acid]
% bromine as HOBr ([1]; pH 6.0): 100% | % bromine as HOBr ([1]; pH 6.5): 99.4% | % bromine as HOBr ([1]; pH 7.0): 98% | % bromine as HOBr ([1]; pH 7.5): 94% | % bromine as HOBr ([1]; pH 8.0): 83% | % bromine as HOBr ([1]; pH 8.5): 57%
